According to patent US7872018B2, “Compounds and methods for kinase modulation, and indications therefor” (Plexxikon, Inc., priority 2006, dated 2011):

Experiments:
B-Raf V600E = B-Raf V600E (Homo sapiens, UniProt P15056, V600E); test: B-Raf V600E kinase activity assay; type: biochemical; details: under the test conditions employed; read-out: IC50 toward kinase B-Raf V600E
TrkA = molecular target: T1, TrkA (Homo sapiens, UniProt P04629); test: TrkA biochemical assay (AlphaScreen); details: under the test conditions employed; read-out: IC50 toward kinase TrkA
T1 construct: purchased Upstate Biotech 14-571
Procedure: Compounds tested were dissolved in DMSO (1 μL) and added to a white 384-well plate (Costar #3705). […] Each sample was at 5% DMSO. The plate was then incubated for 40 minutes at room temperature.

Fms = molecular target: T2, Fms (Homo sapiens, UniProt P07333); test: Fms biochemical assay (AlphaScreen or 33P-ATP); details: under the test conditions employed; read-out: IC50 toward kinase Fms
T2 construct: purchased Upstate Biotech 14-551
Source text: Each sample was at 5% DMSO.

HGK = HGK (Homo sapiens, UniProt O95819); test: HGK (MAP4K4) biochemical assay (AlphaScreen); details: under the test conditions employed; read-out: IC50 toward kinase HGK
Procedure: Substrate was 10 nM biotin-ERM (T567/T564/T558, Cell Signaling, Inc., cat#1344). MAP4K4 kinase was at 0.5 ng per sample. After incubation of the kinase reaction for 40 min at room temperature, 5 μl of donor beads and protein A acceptor beads (Perkin Elmer Life Science, cat#67606017) at final concentration 1 μg/ml in stop buffer (20 mM Tris, pH 7.4, 200 mM Nacl, 100 mM EDTA, 0.03% BSA) was added, along with Phospho-ERM Antibody (T567/T564/T558, Cell Signaling, Inc., cat#3141) at 1:1000 dilution. […] Phosphorylated substrate results in binding of the antibody which binds to protein A acceptor bead and association of the donor and acceptor beads is such that the signal correlates with kinase activity.

Kit = molecular target: T3, Kit (Homo sapiens, UniProt P10721); test: c-kit biochemical assay (AlphaScreen or 33P-ATP); details: under the test conditions employed; read-out: IC50 toward kinase Kit
T3 construct: P1332.N6 BI PTP KIT M552-K948-X COD; made in house; host or cells: E. coli BL21(DE3)RIL, co-expressed with PTP1B
Procedure: C-kit kinase was at 1 ng per sample.
The c-kit enzyme used in the above assay was either obtained from Cell Signaling Technology (Cat. #7754) or was prepared as follows: A plasmid encoding kit (DNA and encoded protein sequences shown below) was engineered using common polymerase chain reaction (PCR) methods. Complementary DNA cloned from various human tissues were purchased from Invitrogen, and these were used as substrates in the PCR reactions. Specific custom synthetic oligonucleotide primers were designed to initiate the PCR product, and also to provide the appropriate restriction enzyme cleavage sites for ligation with the plasmids. The entire sequence encoding the enzyme was made through a gene synthesis procedure, using custom synthetic oligonucleotides covering the entire coding sequence (Invitrogen, see below).

Kdr = Kdr (Homo sapiens, UniProt P35968); test: Kdr kinase activity assay; type: biochemical; details: under the test conditions employed; read-out: IC50 toward kinase Kdr
Sequence of Kdr (P35968 20-1356): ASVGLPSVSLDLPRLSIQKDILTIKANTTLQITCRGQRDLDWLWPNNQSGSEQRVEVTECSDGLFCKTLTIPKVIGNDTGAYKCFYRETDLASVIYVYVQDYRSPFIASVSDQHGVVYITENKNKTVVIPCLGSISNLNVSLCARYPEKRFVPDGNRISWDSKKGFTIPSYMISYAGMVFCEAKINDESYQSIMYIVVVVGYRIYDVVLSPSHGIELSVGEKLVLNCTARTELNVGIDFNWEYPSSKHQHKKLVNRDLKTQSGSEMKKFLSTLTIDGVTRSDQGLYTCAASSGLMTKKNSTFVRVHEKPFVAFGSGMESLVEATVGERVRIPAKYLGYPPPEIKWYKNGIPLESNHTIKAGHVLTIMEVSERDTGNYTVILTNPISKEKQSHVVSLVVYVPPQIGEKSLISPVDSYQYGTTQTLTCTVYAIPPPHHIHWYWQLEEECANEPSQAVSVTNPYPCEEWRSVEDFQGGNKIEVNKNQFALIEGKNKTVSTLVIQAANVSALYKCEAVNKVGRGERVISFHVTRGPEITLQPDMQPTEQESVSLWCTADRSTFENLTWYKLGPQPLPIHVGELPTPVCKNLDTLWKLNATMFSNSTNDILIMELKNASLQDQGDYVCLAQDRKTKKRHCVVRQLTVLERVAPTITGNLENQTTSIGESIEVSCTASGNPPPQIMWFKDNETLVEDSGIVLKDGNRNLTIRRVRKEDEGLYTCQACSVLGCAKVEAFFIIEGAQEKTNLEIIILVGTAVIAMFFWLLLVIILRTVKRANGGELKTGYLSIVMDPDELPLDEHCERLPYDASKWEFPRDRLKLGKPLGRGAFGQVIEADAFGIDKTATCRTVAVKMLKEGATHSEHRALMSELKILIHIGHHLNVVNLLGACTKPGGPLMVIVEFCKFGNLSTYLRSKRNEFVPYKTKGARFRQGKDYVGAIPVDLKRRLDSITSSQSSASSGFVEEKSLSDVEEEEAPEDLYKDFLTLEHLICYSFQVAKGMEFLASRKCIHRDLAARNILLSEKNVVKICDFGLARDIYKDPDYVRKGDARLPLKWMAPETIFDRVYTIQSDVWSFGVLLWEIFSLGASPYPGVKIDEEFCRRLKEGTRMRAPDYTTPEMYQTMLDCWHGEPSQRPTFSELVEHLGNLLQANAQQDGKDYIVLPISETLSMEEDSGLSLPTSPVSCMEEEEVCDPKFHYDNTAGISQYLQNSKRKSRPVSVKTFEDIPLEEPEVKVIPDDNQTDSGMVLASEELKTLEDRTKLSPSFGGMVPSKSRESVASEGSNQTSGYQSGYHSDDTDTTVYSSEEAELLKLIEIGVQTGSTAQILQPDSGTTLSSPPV

Sequence of B-Raf V600E (P15056 whole entry V600E): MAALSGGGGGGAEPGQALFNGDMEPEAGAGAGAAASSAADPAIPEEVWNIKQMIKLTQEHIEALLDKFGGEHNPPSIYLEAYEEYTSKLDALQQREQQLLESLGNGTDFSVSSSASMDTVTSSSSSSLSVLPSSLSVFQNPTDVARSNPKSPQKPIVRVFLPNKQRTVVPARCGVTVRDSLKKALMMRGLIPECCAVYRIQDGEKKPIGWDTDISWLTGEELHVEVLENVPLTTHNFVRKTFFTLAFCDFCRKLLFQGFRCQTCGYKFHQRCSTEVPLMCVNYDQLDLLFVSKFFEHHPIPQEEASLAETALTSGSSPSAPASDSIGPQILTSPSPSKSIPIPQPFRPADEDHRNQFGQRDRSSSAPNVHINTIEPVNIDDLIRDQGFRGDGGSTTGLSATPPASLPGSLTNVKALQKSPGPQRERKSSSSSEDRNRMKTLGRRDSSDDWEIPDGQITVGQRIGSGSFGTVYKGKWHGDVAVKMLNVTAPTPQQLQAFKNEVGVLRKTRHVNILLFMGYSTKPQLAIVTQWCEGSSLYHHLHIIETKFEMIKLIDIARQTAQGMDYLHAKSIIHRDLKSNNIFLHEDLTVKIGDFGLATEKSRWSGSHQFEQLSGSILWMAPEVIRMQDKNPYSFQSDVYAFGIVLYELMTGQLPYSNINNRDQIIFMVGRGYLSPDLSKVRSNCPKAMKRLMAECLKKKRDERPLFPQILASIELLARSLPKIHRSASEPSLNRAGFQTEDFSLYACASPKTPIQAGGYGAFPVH
T3 sequence (P10721 552-948): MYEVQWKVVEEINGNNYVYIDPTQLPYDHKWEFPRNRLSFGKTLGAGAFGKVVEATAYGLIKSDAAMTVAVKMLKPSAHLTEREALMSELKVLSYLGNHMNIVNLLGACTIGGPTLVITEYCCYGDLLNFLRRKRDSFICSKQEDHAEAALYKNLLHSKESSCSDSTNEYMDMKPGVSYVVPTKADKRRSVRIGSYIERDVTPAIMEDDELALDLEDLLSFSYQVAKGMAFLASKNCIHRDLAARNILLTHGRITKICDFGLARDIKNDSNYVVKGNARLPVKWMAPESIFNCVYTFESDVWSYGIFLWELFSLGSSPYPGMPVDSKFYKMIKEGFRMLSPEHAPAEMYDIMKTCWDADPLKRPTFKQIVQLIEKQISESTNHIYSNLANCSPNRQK
T2 sequence (P07333 20-972): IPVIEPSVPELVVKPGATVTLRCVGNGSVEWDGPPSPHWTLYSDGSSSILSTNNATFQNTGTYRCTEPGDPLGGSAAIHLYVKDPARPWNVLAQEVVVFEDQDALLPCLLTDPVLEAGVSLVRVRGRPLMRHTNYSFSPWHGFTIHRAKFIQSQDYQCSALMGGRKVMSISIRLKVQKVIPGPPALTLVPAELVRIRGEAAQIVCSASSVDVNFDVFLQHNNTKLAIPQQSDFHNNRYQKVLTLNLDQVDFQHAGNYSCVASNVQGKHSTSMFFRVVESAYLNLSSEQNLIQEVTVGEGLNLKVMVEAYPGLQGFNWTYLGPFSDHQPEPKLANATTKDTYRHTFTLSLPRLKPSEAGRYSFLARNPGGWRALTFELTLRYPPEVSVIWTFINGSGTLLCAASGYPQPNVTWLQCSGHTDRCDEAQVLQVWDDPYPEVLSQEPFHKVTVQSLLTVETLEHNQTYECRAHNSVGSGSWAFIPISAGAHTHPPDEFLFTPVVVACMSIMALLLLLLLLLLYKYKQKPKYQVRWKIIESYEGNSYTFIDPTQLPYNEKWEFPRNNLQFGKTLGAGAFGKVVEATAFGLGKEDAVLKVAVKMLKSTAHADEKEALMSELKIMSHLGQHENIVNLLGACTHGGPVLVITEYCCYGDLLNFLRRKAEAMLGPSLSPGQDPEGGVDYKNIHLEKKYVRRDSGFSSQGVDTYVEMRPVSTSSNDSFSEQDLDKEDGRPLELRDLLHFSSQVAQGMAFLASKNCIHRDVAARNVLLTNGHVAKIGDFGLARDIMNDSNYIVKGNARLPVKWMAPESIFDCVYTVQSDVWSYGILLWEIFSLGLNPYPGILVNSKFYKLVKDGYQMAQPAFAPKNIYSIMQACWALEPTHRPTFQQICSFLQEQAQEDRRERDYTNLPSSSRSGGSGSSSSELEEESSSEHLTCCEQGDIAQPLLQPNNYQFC
T1 sequence (P04629 33-796): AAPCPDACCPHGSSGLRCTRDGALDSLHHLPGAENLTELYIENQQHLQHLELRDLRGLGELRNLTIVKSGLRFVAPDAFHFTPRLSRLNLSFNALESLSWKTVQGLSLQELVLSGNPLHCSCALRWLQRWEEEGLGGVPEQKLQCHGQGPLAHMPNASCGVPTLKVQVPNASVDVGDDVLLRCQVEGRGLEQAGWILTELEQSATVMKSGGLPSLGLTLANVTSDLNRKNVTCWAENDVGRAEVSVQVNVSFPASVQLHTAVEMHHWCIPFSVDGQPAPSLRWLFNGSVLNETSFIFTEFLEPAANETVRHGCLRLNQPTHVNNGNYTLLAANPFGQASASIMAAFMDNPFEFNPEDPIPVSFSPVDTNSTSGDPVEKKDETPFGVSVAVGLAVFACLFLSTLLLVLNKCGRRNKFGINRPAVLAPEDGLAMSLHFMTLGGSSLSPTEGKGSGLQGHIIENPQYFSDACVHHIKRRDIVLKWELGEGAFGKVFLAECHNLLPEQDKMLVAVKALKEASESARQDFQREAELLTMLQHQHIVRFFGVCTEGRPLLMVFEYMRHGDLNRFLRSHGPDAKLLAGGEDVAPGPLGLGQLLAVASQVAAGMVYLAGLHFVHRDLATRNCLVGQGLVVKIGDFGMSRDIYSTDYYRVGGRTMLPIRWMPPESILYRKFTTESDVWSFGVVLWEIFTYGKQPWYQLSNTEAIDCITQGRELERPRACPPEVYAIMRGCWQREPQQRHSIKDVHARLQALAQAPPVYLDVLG

| IC50 (B-Raf V600E) | IC50 (TrkA) | IC50 (Fms) | IC50 (HGK) | IC50 (Kit) | IC50 (Kdr) | SMILES |
| --- | --- | --- | --- | --- | --- | --- |
| ≤ 10 µM |  |  |  |  |  | COc1cc(C(=O)c2c[nH]c3ncccc23)ccc1OCc1ccc(Cl)cc1 [P-1698, [4-(4-Chloro-benzyloxy)-3-methoxy-phenyl]-(1H-pyrrolo[2,3-b]pyridin-3-yl)-methanone] |
|  | ≤ 10 µM | ≤ 10 µM | ≤ 10 µM |  |  | COc1cc(Cc2c[nH]c3ncc(C#N)cc23)c(F)cc1OCc1nc2ccccc2[nH]1 [P-2171, 3-[4-(1H-Benzoimidazol-2-ylmethoxy)-2-fluoro-5-methoxy-benzyl]-1H-pyrrolo[2,3-b]pyridine-5-carbonitrile] |
|  | ≤ 10 µM | ≤ 10 µM | ≤ 10 µM | ≤ 10 µM |  | COc1cc(Cc2c[nH]c3ncc(Cl)cc23)c(F)cc1OCc1nc2cc(Cl)c(Cl)cc2[nH]1 [P-2172, 5,6-Dichloro-2-[4-(5-chloro-1H-pyrrolo[2,3-b]pyridin-3-ylmethyl)-5-fluoro-2-methoxy-phenoxymethyl]-1H-benzoimidazole] |
|  | ≤ 10 µM | ≤ 10 µM | ≤ 10 µM |  |  | COc1cc(Cc2c[nH]c3ncc(Cl)cc23)c(Cl)cc1OCc1nc2ccccc2[nH]1 [P-2104, 2-[5-Chloro-4-(5-chloro-1H-pyrrolo[2,3-b]pyridin-3-ylmethyl)-2-methoxy-phenoxymethyl]-1H-benzoimidazole] |
| ≤ 10 µM |  | ≤ 10 µM |  | ≤ 10 µM |  | Clc1ccc(COc2ccc(Cc3c[nH]c4ncccc34)c(Cl)c2)cc1 [P-1471, 3-[2-Chloro-4-(4-chloro-benzyloxy)-benzyl]-1H-pyrrolo[2,3-b]pyridine] |
|  |  | ≤ 10 µM |  |  | ≤ 10 µM | COc1cnc2[nH]cc(Cc3c(F)ccc(OCC(F)(F)F)c3Cl)c2c1 [P-2147, 3-[2-Chloro-6-fluoro-3-(2,2,2-trifluoro-ethoxy)-benzyl]-5-methoxy-1H-pyrrolo[2,3-b]pyridine] |
|  | ≤ 10 µM | ≤ 10 µM | ≤ 10 µM |  |  | COc1cc(Cc2c[nH]c3ncc(F)cc23)c(F)cc1OCc1nc2ccccc2[nH]1 [P-2115, 2-[5-Fluoro-4-(5-fluoro-1H-pyrrolo[2,3-b]pyridin-3-ylmethyl)-2-methoxy-phenoxymethyl]-1H-benzoimidazole] |
|  | ≤ 10 µM | ≤ 10 µM | ≤ 10 µM | ≤ 10 µM |  | COc1cc(Cc2c[nH]c3ncc(Cl)cc23)c(F)cc1OCc1nc2ccccc2n1C [P-2106, 2-[4-(5-Chloro-1H-pyrrolo[2,3-b]pyridin-3-ylmethyl)-5-fluoro-2-methoxy-phenoxymethyl]-1-methyl-1H-benzoimidazole] |
| ≤ 10 µM |  |  |  | ≤ 10 µM |  | COc1cc(Cc2c[nH]c3ncccc23)ccc1OCc1c(F)cc(F)cc1F [P-1578, 3-[3-Methoxy-4-(2,4,6-trifluoro-benzyloxy)-benzyl]-1H-pyrrolo[2,3-b]pyridine] |
|  | ≤ 10 µM | ≤ 10 µM | ≤ 10 µM | ≤ 10 µM |  | COc1cc(Cc2c[nH]c3ncc(Cl)cc23)c(F)cc1OC(C)c1nc2ccccc2[nH]1 (stereo not shown) [P-2110, 2-{1-[4-(5-Chloro-1H-pyrrolo[2,3-b]pyridin-3-ylmethyl)-5-fluoro-2-methoxy-phenoxy]-ethyl}-1H-benzoimidazole] |
|  | ≤ 10 µM | ≤ 10 µM | ≤ 10 µM | ≤ 10 µM |  | COc1cc(Cc2c[nH]c3ncc(Cl)cc23)c(F)cc1OCCc1nc2ccccc2[nH]1 [P-2180, 2-{2-[4-(5-Chloro-1H-pyrrolo[2,3-b]pyridin-3-ylmethyl)-5-fluoro-2-methoxy-phenoxy]-ethyl}-1H-benzoimidazole] |
|  | ≤ 10 µM | ≤ 10 µM | ≤ 10 µM |  |  | Fc1cc(Cc2c[nH]c3ncc(Cl)cc23)c(Cl)cc1OCc1nc2ccccc2[nH]1 [P-2099, 2-[5-Chloro-4-(5-chloro-1H-pyrrolo[2,3-b]pyridin-3-ylmethyl)-2-fluoro-phenoxymethyl]-1H-benzoimidazole] |
| ≤ 10 µM |  |  |  |  |  | FC(F)(F)c1ccc(COc2ccc(Cc3c[nH]c4ncccc34)cc2C(F)(F)F)cc1 [P-1797, 3-[3-Trifluoromethyl-4-(4-trifluoromethyl-benzyloxy)-benzyl]-1H-pyrrolo[2,3-b]pyridine] |
|  | ≤ 10 µM | ≤ 10 µM | ≤ 10 µM |  |  | COc1cnc2[nH]cc(Cc3cc(Cl)c(OCc4nc5ccccc5[nH]4)cc3F)c2c1 [P-2116, 2-[2-Chloro-5-fluoro-4-(5-methoxy-1H-pyrrolo[2,3-b]pyridin-3-ylmethyl)-phenoxymethyl]-1H-benzoimidazole] |
| ≤ 10 µM |  | ≤ 10 µM |  | ≤ 10 µM |  | COc1cc(Cc2c[nH]c3ncccc23)cc(F)c1OCc1ccc(Cl)cc1 [P-1466, 3-[4-(4-Chloro-benzyloxy)-3-fluoro-5-methoxy-benzyl]-1H-pyrrolo[2,3-b]pyridine] |
|  | ≤ 10 µM | ≤ 10 µM | ≤ 10 µM |  |  | COc1cc(Cc2c[nH]c3ncccc23)c(Cl)cc1OCc1nc2ccccc2[nH]1 [P-2103, 2-[5-Chloro-2-methoxy-4-(1H-pyrrolo[2,3-b]pyridin-3-ylmethyl)-phenoxymethyl]-1H-benzoimidazole] |
|  | ≤ 10 µM | ≤ 10 µM | ≤ 10 µM | ≤ 10 µM |  | COc1cc(Cc2c[nH]c3ncc(Cl)cc23)c(F)cc1OCc1nc2cc(C(F)(F)F)ccc2[nH]1 [P-2178, 2-[4-(5-Chloro-1H-pyrrolo[2,3-b]pyridin-3-ylmethyl)-5-fluoro-2-methoxy-phenoxymethyl]-5-trifluoromethyl-1H-benzoimidazole] |
|  |  | ≤ 10 µM |  |  | ≤ 10 µM | COc1cnc2[nH]cc(Cc3c(Cl)ccc(OCC(F)(F)F)c3Cl)c2c1 [P-2153, 3-[2,6-Dichloro-3-(2,2,2-trifluoro-ethoxy)-benzyl]-5-methoxy-1H-pyrrolo[2,3-b]pyridine] |
| ≤ 10 µM |  |  |  |  |  | COc1cc(Cc2c[nH]c3ncccc23)ccc1OCc1c(Cl)cccc1Cl [P-1579, 3-[4-(2,6-Dichloro-benzyloxy)-3-methoxy-benzyl]-1H-pyrrolo[2,3-b]pyridine] |
|  | ≤ 10 µM | ≤ 10 µM | ≤ 10 µM | ≤ 10 µM |  | COc1cc(Cc2c[nH]c3ncc(Cl)cc23)c(F)cc1OCc1nc2cc(Cl)ccc2[nH]1 [P-2111, 6-Chloro-2-[4-(5-chloro-1H-pyrrolo[2,3-b]pyridin-3-ylmethyl)-5-fluoro-2-methoxy-phenoxymethyl]-1H-benzoimidazole] |
|  |  | ≤ 10 µM |  |  | ≤ 10 µM | O=C(c1c(F)ccc(OCC(F)(F)F)c1Cl)c1c[nH]c2ncccc12 [P-2150, [2-Chloro-6-fluoro-3-(2,2,2-trifluoro-ethoxy)-phenyl]-(1H-pyrrolo[2,3-b]pyridin-3-yl)-methanone] |
| ≤ 10 µM |  | ≤ 10 µM |  | ≤ 10 µM |  | CCOc1cc(Cc2c[nH]c3ncccc23)ccc1OCc1ccc(Cl)cc1 [P-1470, 3-[4-(4-Chloro-benzyloxy)-3-ethoxy-benzyl]-1H-pyrrolo[2,3-b]pyridine] |
|  | ≤ 10 µM | ≤ 10 µM | ≤ 10 µM |  |  | COc1cc(Cc2c[nH]c3ncc(C(=O)O)cc23)c(F)cc1OCc1nc2ccccc2[nH]1 [P-2175, 3-[4-(1H-Benzoimidazol-2-ylmethoxy)-2-fluoro-5-methoxy-benzyl]-1H-pyrrolo[2,3-b]pyridine-5-carboxylic acid] |
|  | ≤ 10 µM | ≤ 10 µM | ≤ 10 µM | ≤ 10 µM |  | COc1cc(Cc2c[nH]c3ncccc23)c(F)cc1OCc1nc2ccc(Cl)cc2[nH]1 [P-2112, 6-Chloro-2-[5-fluoro-2-methoxy-4-(1H-pyrrolo[2,3-b]pyridin-3-ylmethyl)-phenoxymethyl]-1H-benzoimidazole] |
|  | ≤ 10 µM | ≤ 10 µM | ≤ 10 µM | ≤ 10 µM |  | COC(=O)c1cnc2[nH]cc(Cc3cc(OC)c(OCc4nc5ccccc5[nH]4)cc3F)c2c1 [P-2174, 3-[4-(1H-Benzimidazol-2-ylmethoxy)-2-fluoro-5-methoxy-benzyl]-1H-pyrrolo[2,3-b]pyridine-5-carboxylic acid methyl ester] |
|  | ≤ 10 µM | ≤ 10 µM | ≤ 10 µM |  |  | COc1ccc2[nH]c(COc3cc(F)c(Cc4c[nH]c5ncc(Cl)cc45)cc3OC)nc2c1 [P-2182, 2-[4-(5-Chloro-1H-pyrrolo[2,3-b]pyridin-3-ylmethyl)-5-fluoro-2-methoxy-phenoxymethyl]-5-methoxy-1H-benzoimidazole] |
